Usually ED50 stands for the dose at which the effect has come halfway, by size or by number of responders.

Like-named read-outs stand apart in the source and are kept apart here.

Holding throughout (assay type): in vivo
For assay [1], the system named is Kunming mice. As to the kind of experiment: Acetic acid-induced writhing test. The settings on record: for ED50: Mus musculus, read-out: ED50, analgesic activity in writhing test. The protocol:
Kunming mice (18-22 g, male and female each half) were divided into a negative control group, an Aspirin control group, a morphine control group and a group of the compound of the invention. Each group of mice were respectively administered corresponding medicine (0.2 ml/10 g) intragastrically or subcutaneously, The mice of the negative control group were administered, the same volume vehicle. After 60 minutes (intragastrically) or 30 minutes (subcutaneously), each group of mice were administered 0.6% acetic acid solution (0.4 ml) by intraperitoneal injecting, and then writhing times in 15 minutes were observed and recorded immediately. Writhing inhibition rate in mice was used as the pharmacodynamic index of analgesic activity. Writhing inhibition rate(%)=(writhing times of negative control group−writhing times of medicine group)/Writhing times of negative control group×100%
ED50 values were calculated according to the result.
On the technique in general: An intraperitoneal irritant provokes the stretching counted in writhing tests.

The subject of assay [2] is KM female mice. In words: Hot-plate test in mice. The settings on record: for ED50: Mus musculus, 1 h, read-out: ED50, analgesic activity in the hot-plate test. The source says:
Hot-plate test is one of conventional physiological pain models. Mice lick hind paws, jump up and so on when they are subject to thermal stimulus. Analgesics that take effect on central nervous system can increase the thermo-pain threshold, prolong the latency of protective response.
KM female mice weighting 18-22 g were employed in the test. Primary screening was done before the test to remove the animals whose responses were too slow (>30 s) or too sensitive (<6 s). The mice passing the primary screening were divided into a negative control group, a morphine control group and a group of the compound of the invention. Each group of mice were respectively administered corresponding dose of medicine intragastrically or by intravenous injection, and 60 minutes later, a hot-plate test was done on those mice. The time of first licking hind paws and jumping up was recorded (the data over 60 s is recorded as 60) and compared with the latency of the animals in the control group. The analgesic activity of each dose was calculated and ED50 was calculated from the analgesic activity.

Assay [3] relates to Sprague-Dawley (SD) rats. In words: Spared nerve injury (SNI) test. The settings on record: intragastrically on Day 12, 13, 14 after surgery, mechanical allodynia at 60 minutes after administration; for ED50: Rattus norvegicus, po, read-out: ED50, analgesic activity in the spared nerve injury (SNI) test. The source says: Neuropathic pain is also called for short as neuralgia, which is a common chronic pain. It is an abnormal pain condition caused by hurt or disease-induced trauma of peripheral or central nerve, and can not be cured effectively till now. Sciatic nerve branches selective injury model (spared nerve injury, SNI) is a neuralgia model established in 2000 (see Spared nerve injury: an animal model of persistent peripheral neuropathic pain, Pain, 2000 August; 87(2): 149-58). The model can produce […] robust mechanical allodynia, so it can simulate the clinic nerve pathologic pain relatively well.
Adult male Sprague-Dawley (SD) rats weighting 200-250 g (Experimental Animal Center of Xuzhou Medical College) were employed in the test after acclimation by feeding for 1 week. First, Sciatic nerve branches selective injury model (spared nerve injury, SNI) was replicated, The rats of successful modeling were administered intragastrically on Day 12, 13, 14 after surgery. The mechanical allodynia were measured at 60 minutes after administration every day (von Frey Cilia Apparatus, manufactured by Institute of Biology Bioengineering, Chinese Academy of Medical Science).

Assay [4] concerns Sprague-Dawley (SD) rats. As to the kind of experiment: Bee venom test. Particulars: for ED50, analgesic activity in the bee venom test: intrathecally, bee venom 5 minutes after administration; for ED50: Rattus norvegicus, central, 5 min, read-out: ED50, analgesic activity in the bee venom test. The protocol:
Adult male Sprague-Dawley (SD) rats weighting 200-250 g were used in the test after acclimation by feeding for 1 week. First, tubes were placed intrathecally (i.t.) in rats. The rats with good conditions after 3-4 days were selected for the bee venom test. The animals were divided into an intrathecal DMSO group, an intrathecal morphine group and a group of intrathecal compounds of the invention. 5 minutes after administration, each group of rats was […] injected with 50 μl of bee venom at their left hind limbs. Times of feet spontaneous drawing back every 5 minutes in 60 minutes, as well as total times of feet drawing back in an hour were observed and recorded. The response latency to heat stimulus and threshold of mechanical stimulus on both thenars of each group of rats were measured before intrathecal administration and 2 hours after bee venom injection respectively.

Setting [5] is: po, intragastrically, acetic acid 60 minutes after dosing, writhing times in 15 minutes.
The mark [6] stands for this setting: sc, subcutaneously (S. C), acetic acid 30 minutes after dosing, writhing times in 15 minutes.
Where [7] appears, read: intragastrically, acetic acid 60 minutes after dosing, writhing times in 15 minutes.
[8] abbreviates: subcutaneously (S. C), acetic acid 30 minutes after dosing, writhing times in 15 minutes.
The mark [9] stands for this setting: intragastrically, tested 60 minutes after dosing.
Where [10] appears, read: intravenous injection, tested 60 minutes after dosing.

Consider `CC(=O)Oc1ccccc1C(=O)O` [Aspirin, reference compound], for which the results for the ED50 in assay [1] (setting [5]) and in assay [1] (setting [6]) were 100 mg/kg and 80 mg/kg, respectively.

With `COc1ccccc1N1CCN(CC(=O)c2ccccc2)CC1` [Example 1], the “ED50, analgesic activity in writhing test” value (“ED50 … in writhing test” below) in assay [1] (setting [7]) is 20 mg/kg; in assay [1] (setting [8]), 15 mg/kg. In addition, the “ED50, analgesic activity in the hot-plate test” value (shortened to “ED50 … in the hot-plate test”) in assay [2] (setting [9]) was 25 mg/kg; in assay [2] (setting [10]), 8 mg/kg. Also, in assay [3], the “ED50, analgesic activity in the spared nerve injury (SNI) test” value (from here on “ED50, analgesic activity … (SNI) test”) amounted to 40 mg/kg.

Take `COc1cccc(N2CCN(CC(=O)c3ccccc3)CC2)c1` [Example 2]: the “ED50 … in writhing test” value in assay [1] (setting [7]) came to 5 mg/kg; in assay [1] (setting [8]) it was 2 mg/kg. Further, the “ED50, analgesic activity in the bee venom test” value (“ED50 … in the bee venom test” below) in assay [4] was found to be 0.1 mg/kg. In assay [3], the “ED50, analgesic activity … (SNI) test” value worked out at 15 mg/kg.

With `COc1ccc(N2CCN(CC(=O)c3ccccc3)CC2)cc1` [Example 3], the “ED50 … in writhing test” value in assay [1] (setting [7]) turned out to be 30 mg/kg; in assay [1] (setting [8]), 20 mg/kg. The “ED50 … in the hot-plate test” value was 50 mg/kg in assay [2] (setting [9]) and 19 mg/kg in assay [2] (setting [10]). For the same compound, the “ED50, analgesic activity … (SNI) test” value in assay [3] was found to be 30 mg/kg.

In the case of `O=C(CN1CCN(c2ccccc2Cl)CC1)c1ccccc1` [Example 4], the “ED50 … in writhing test” value in assay [1] (setting [7]) was found to be 80 mg/kg; in assay [1] (setting [8]) it was 36 mg/kg. Also, the “ED50, analgesic activity … (SNI) test” value in assay [3] amounted to 100 mg/kg.

In the case of `O=C(CN1CCN(c2cccc(Cl)c2)CC1)c1ccccc1` [Example 5], the “ED50 … in writhing test” value in assay [1] (setting [7]) came to 50 mg/kg; in assay [1] (setting [8]) it was 18 mg/kg. Besides, the “ED50 … in the hot-plate test” value came to 55 mg/kg in assay [2] (setting [9]) and 20 mg/kg in assay [2] (setting [10]). The “ED50 … in the bee venom test” value in assay [4] was found to be 0.06 mg/kg. Moreover, in assay [3], the “ED50, analgesic activity … (SNI) test” value came out at 80 mg/kg.

Consider `O=C(CN1CCN(c2cccc(Cl)c2Cl)CC1)c1ccccc1` [Example 7], for which the “ED50 … in writhing test” value in assay [1] (setting [7]) came to 60 mg/kg; in assay [1] (setting [8]) it was 20 mg/kg. Moreover, the “ED50 … in the hot-plate test” value in assay [2] (setting [9]) was found to be 60 mg/kg; in assay [2] (setting [10]), 20 mg/kg. Besides, in assay [4], the “ED50 … in the bee venom test” value is 0.08 mg/kg. In addition, the “ED50, analgesic activity … (SNI) test” value in assay [3] was determined as 60 mg/kg.

In the case of `O=C(CN1CCN(c2ccc(F)cc2)CC1)c1ccccc1` [Example 8], the ED50 in assay [1] (setting [5]) came to 120 mg/kg; in assay [1] (setting [6]) it was 80 mg/kg; in assay [2] (setting [10]), 40 mg/kg; in assay [2] (po, intragastrically, tested 60 minutes after dosing), 120 mg/kg; in assay [4] it was 0.12 mg/kg; in assay [3], 150 mg/kg.

As for `O=C(CN1CCN(c2cccc(C(F)(F)F)c2)CC1)c1ccccc1` [Example 9], the “ED50 … in writhing test” value in assay [1] (setting [7]) was 3 mg/kg; in assay [1] (setting [8]), 2 mg/kg. The results for the “ED50 … in the hot-plate test” value in assay [2] (setting [9]) and in assay [2] (setting [10]) were 20 mg/kg and 5 mg/kg, respectively. Besides, in assay [4], the “ED50 … in the bee venom test” value is 0.02 mg/kg. Moreover, in assay [3], the “ED50, analgesic activity … (SNI) test” value turned out to be 10 mg/kg.

On to `Cc1cccc(N2CCN(CC(=O)c3ccccc3)CC2)c1C` [Example 10], for which the “ED50 … in writhing test” value in assay [1] (setting [7]) stood at 5 mg/kg; in assay [1] (setting [8]) it was 10 mg/kg. Besides, the “ED50 … in the hot-plate test” value was determined as 30 mg/kg in assay [2] (setting [9]) and 10 mg/kg in assay [2] (setting [10]). Further, the “ED50 … in the bee venom test” value in assay [4] was 0.03 mg/kg. Further, the “ED50, analgesic activity … (SNI) test” value in assay [3] is 15 mg/kg.

On to `COc1ccc2nc(N3CCN(CC(=O)c4ccccc4)CC3)sc2c1` [Example 11], for which the results for the “ED50 … in writhing test” value in assay [1] (setting [7]) and in assay [1] (setting [8]) were 200 mg/kg and 120 mg/kg, respectively. Also, the “ED50 … in the hot-plate test” value in assay [2] (setting [9]) was 150 mg/kg; in assay [2] (setting [10]) it was 60 mg/kg. For the same compound, the “ED50 … in the bee venom test” value in assay [4] amounted to 0.2 mg/kg. Further, in assay [3], the “ED50, analgesic activity … (SNI) test” value is 180 mg/kg.

On to `Cc1ccc2nc(N3CCN(CC(=O)c4ccccc4)CC3)sc2c1` [Example 12], for which the “ED50 … in writhing test” value came out at 180 mg/kg in assay [1] (setting [7]) and 100 mg/kg in assay [1] (setting [8]). Further, the “ED50, analgesic activity … (SNI) test” value in assay [3] amounted to 200 mg/kg.

For the compound `O=C(CN1CCN(c2nc3ccc(Cl)cc3s2)CC1)c1ccccc1` [Example 14], the “ED50 … in writhing test” value in assay [1] (setting [7]) came out at 152 mg/kg; in assay [1] (setting [8]) it was 78 mg/kg. Also, in assay [3], the “ED50, analgesic activity … (SNI) test” value turned out to be 152 mg/kg.

As to `O=C(CN1CCN(c2ncccn2)CC1)c1ccccc1` [Example 16], the results for the ED50 in assay [1] (setting [5]), in assay [1] (setting [6]) and in assay [3] were 132 mg/kg, 100 mg/kg and 167 mg/kg, respectively.

Regarding `NCC1(CC(=O)O)CCCCC1` [Gabapentin, reference compound], the ED50 in assay [3] was 50 mg/kg.

On to `CN1CC[C@]23c4c5ccc(O)c4O[C@H]2[C@@H](O)C=C[C@H]3[C@H]1C5` [Morphine, reference compound], for which the ED50 in assay [1] (po) turned out to be 4 mg/kg; in assay [1] (sc) it was 1 mg/kg; in assay [2] (iv), 1 mg/kg; in assay [2] (po), 2 mg/kg; in assay [4], 0.005 mg/kg.

(Values after patent US8420652B2, “Use of aryl piperazine derivatives in manufacturing medicants for treating pain” (NHWA Pharma Corporation, priority 2008, dated 2013).)
